Reference: patent publication US20120004235A1, “METHODS TO TREAT CANCER” (Rutgers, The State University of New Jersey, priority 2009, published 2012)

How the values were obtained:
[1] = tested on: RPMI-8226 Human Multiple Myeloma; assay: Human tumor cell CFU assay (Test B); assay type: cell-based; settings: Homo sapiens, RPMI-8226; colony formation in agar, continuous exposure 7-9 days
Procedure: For human tumor cell CFU assays, the cell lines which grow as monolayers, MDA-MB-231, HCT116, HT29, NCI-H460, KB3-1 and KBV-1 were grown in RPMI medium (Invitrogen/Gibco, Grand Island, N.Y.) supplemented with 5% fetal bovine serum (Invitrogen/Gibco, Grand Island, NY). The RPMI-8226 cell line grows in suspension.
For human tumor cell CFU assays, RPMI-8226 cells were grown in 0.35% agar in DMEM-F12 medium supplemented with 10% fetal bovine serum over a base layer of 0.5% agar in DMEM-F12 medium supplemented with 10% fetal bovine serum
For experiments, human tumor cells (1 103) were plated in 6-well plates in medium supplemented with 5% or 10% fetal bovine serum. The compounds were tested in concentrations over the range from 0.01 to 100 nanomolar in half-log intervals covering […] along with untreated control wells. In later experiments some cases the concentration ranges were refined to focus on the region of interest in the response curves. Each compound concentration was tested in duplicate wells. Cultures were exposed to the compounds continuously for 7-9 days at 37° C. in a humidified atmosphere of 5% carbon dioxide balance air. Each experiment was performed three independent times. Colonies were defined as clusters containing 30 or more cells.
The values were expressed as the mean values with lower and upper 95% confidence intervals in nanomolar concentrations.

[2] = tested on: Human HCT-15 Colon Tumor Xenograft Model; assay: Test D xenograft, Compound 2 free base; assay type: in vivo, nu/nu mice; settings: for Increase in Life Span (ILS) / Tumor Growth Delay T-C / Tumor Growth Inhibition T/C (tumor volume): qod × 3 for 2 cycles
[3] = tested on: Human H460 Non-Small Cell Lung Carcinoma Tumor Xenograft Model; assay: Test D xenograft, Compound 2 free base; assay type: in vivo, nu/nu mice; settings: 1.36 mg/kg/day IV, qod × 3 for 2 cycles
Procedure: (§1) The anti-tumor activity of Compound 2 (free base) was evaluated against a variety of human tumor xenograft models. A summary of the studies, including tumor type, dosing and administration, growth inhibition, and major findings is presented below.

[4] = tested on: Human SK-MEL-3 Melanoma Tumor Xenograft Model; assay: Test D xenograft, Compound 2 free base; assay type: in vivo, nu/nu mice; settings: qod × 3 for 2 cycles
Procedure: as §1

[5] = In vitro metabolic stability (Example 22); assay type: in vitro ADME; settings: in vitro in mouse, rat, dog, and human
Procedure: (§2) The in vitro and in vivo activity of compound 2 and two of its metabolites (compound 5 and compound 6) were explored and compared with the activity of camptothecin Top1 inhibitors. […] In human HCT-116 colon ca, HT-29 colon ca and NCI-H460 NSCLC cells the concentration response for compound 2, compound 5 and compound 6 were the same. […] Compound 2 was administered intravenously on a QODx3 schedule for 2 cycles.

[6] = In vitro plasma binding (Example 22); assay type: in vitro ADME; settings: in vitro in mouse, rat, dog, and human
Procedure: as §2

[7] = Half-life in nude mice (Example 22); assay type: in vivo; settings: for half-life: mouse, in vivo, nude mice
Procedure: The in vitro and in vivo activity of compound 2 and two of its metabolites (compound 5 and compound 6) were explored and compared with the activity of camptothecin Top1 inhibitors. […] In human HCT-116 colon ca, HT-29 colon ca and NCI-H460 NSCLC cells the concentration response for compound 2, compound 5 and compound 6 were the same. […]. Compound 2 was administered intravenously on a QODx3 schedule for 2 cycles.

[8] = Body weight loss across the Example 22 xenograft studies; assay type: in vivo, mice; settings: all dosages IV QODx3 for 2 cycles, except the high dosages in HCT-15 and NCI-H292
Procedure: as §2

[9] = tested on: Human LOX-IMVI Melanoma Tumor Xenograft Model; assay: Test D xenograft, Compound 2 free base; settings: qod × 3 for 2 cycles
[10] = tested on: Human H1299 Lung Tumor Xenograft Model; assay: Test D xenograft, Compound 2 free base; settings: qod × 3 for 2 cycles
[11] = tested on: Human MDA-MB-231 Breast Tumor Xenograft Model; assay: Test D xenograft, Compound 2 free base; settings: qod × 3 for 2 cycles
[12] = tested on: Human HCT-116 Colon Tumor Xenograft Model; assay: Test D xenograft, Compound 2 and metabolites; settings: 1.7 mg/kg/day IV, qod × 3 for 2 cycles
[13] = tested on: HCT-116 human colon tumor xenograft; assay: Compound 2 after oral administration vs. the HCT-116 xenograft model
[14] = 1.36 mg/kg/day PO, qod×3 weekly for 2 cycles
[15] = 2.72 mg/kg/day PO, qod×3 weekly for 2 cycles
[16] = PO dosages (0.68, 1.36, 2.72 mg/kg/day, qod×3 weekly for 2 cycles)

## CNCCn1c(=O)c2cc(OC)c(OC)cc2c2cnc3cc4c(cc3c21)OCO4 [Compound 2, 8,9-dimethoxy-2,3-methylenedioxy-5-[2-(N-methylamino)ethyl]-5H-dibenzo[c,h]1,6-naphthyridin-6-one]
[1]
  IC50: 0.2 nM
  IC90: 0.8 nM
[2]; 1 mg/kg/day IV
  Increase in Life Span (ILS): 1.3x
  Tumor Growth Delay T-C: 14 days
  Tumor Growth Inhibition T/C (tumor volume): 37.1%
[2]; 2 mg/kg/day IV
  Increase in Life Span (ILS): 1.8x
  Tumor Growth Delay T-C: 35 days
  Tumor Growth Inhibition T/C (tumor volume): 8.6%
[2]; high dosage, IV QODx3 for 2 cycles
  maximum body weight loss: 25.7%
[3]
  Increase in Life Span (ILS): 1.8x
  Tumor Growth Delay T-C: 21 days
  Tumor Growth Inhibition T/C (tumor volume): 14.1%
[4]; 1 mg/kg/day IV
  Increase in Life Span (ILS): 1.5x
  Tumor Growth Delay T-C: 15 days
  Tumor Growth Inhibition T/C (tumor volume): 22.0%
[4]; 1.36 mg/kg/day IV
  Increase in Life Span (ILS): 2.3x
  Tumor Growth Delay T-C: 35 days
  Tumor Growth Inhibition T/C (tumor volume): 13.4%
[4]; 1.7 mg/kg/day IV
  Increase in Life Span (ILS): 1.9x
  Tumor Growth Delay T-C: 26 days
  Tumor Growth Inhibition T/C (tumor volume): 16.7%
[5]
  metabolic stability: high metabolic stability
[6]
  plasma binding: 88-93%
[7]; ip
  half-life: 624 min
[7]; iv
  half-life: 306 min
[7]; po
  half-life: 216 min
[7]; tumor-bearing mice, compared with nude mice
  t1/2: longer
[8]
  maximum body weight loss: ≤ 20%
[9]; 1 mg/kg/day IV
  Increase in Life Span (ILS): 1.1x
  Tumor Growth Delay T-C: 2 days
  Tumor Growth Inhibition T/C (tumor volume): 89.4%
[9]; 2 mg/kg/day IV
  Increase in Life Span (ILS): 2.8x
  Tumor Growth Delay T-C: 25 days
  Tumor Growth Inhibition T/C (tumor volume): 66.1%
[9]; 4 mg/kg/day IV
  Tumor Growth Inhibition T/C (tumor volume): 39.1%
[10]; 1 mg/kg/day IV
  Increase in Life Span (ILS): 1.7x
  Tumor Growth Delay T-C: 20 days
  Tumor Growth Inhibition T/C (tumor volume): 22.6%
[10]; 1.36 mg/kg/day IV
  Increase in Life Span (ILS): 1.8x
  Tumor Growth Delay T-C: 24 days
  Tumor Growth Inhibition T/C (tumor volume): 13.2%
[10]; 1.7 mg/kg/day IV
  Increase in Life Span (ILS): 2.1x
  Tumor Growth Delay T-C: 34 days
  Tumor Growth Inhibition T/C (tumor volume): 8.7%
[11]; 1 mg/kg/day IV
  Increase in Life Span (ILS): 1.7x
  Tumor Growth Delay T-C: 21 days
  Tumor Growth Inhibition T/C (tumor volume): 30.7%
[11]; 1.36 mg/kg/day IV
  Increase in Life Span (ILS): >2.3x
  Tumor Growth Delay T-C: >47 days
  Tumor Growth Inhibition T/C (tumor volume): 8.6%
[11]; 1.7 mg/kg/day IV
  Increase in Life Span (ILS): 2.0x
  Tumor Growth Delay T-C: 35 days
  Tumor Growth Inhibition T/C (tumor volume): 17.7%
[12]
  Increase in Life Span (ILS): 1.9x
  Tumor Growth Delay T-C: 28 days
  Tumor Growth Inhibition T/C (tumor volume): 36.4%
[13]; [14]
  TGD: no effect on TGD
  TGI (T/C): 57.6%
[13]; [15]
  ILS: 1.5 fold
  TGD (T-C): 18 days
[13]; [16]
  toxic deaths: no toxic deaths
  weight loss: < 20%
